Results reported in patent US20240059680A1, “N-(2,3-DIHYDRO-1,4-BENZOXAZIN-4-YL)-3-ISOPROPYL-7-(2,3,5-TRIFLUOROPHENYL)BENZO-THIOPHENE-2-CARBOXAMIDE DERIVATIVES AND SIMILAR COMPOUNDS FOR THE TREATMENT OF HEARTWORM INFECTIONS” (ELANCO TIERGESUNDHEIT AG, priority 2020, published 2024).
In brackets after ≈: the same amount, converted by molar mass. Where two headings read alike, the source gives them in different places.

What was measured:
[1] = system: Adult Nippostrongylus brasiliensis; experiment: In Vitro Assay 5: Nippostrongylus brasiliensis (NIPOBR), acetylcholine esterase readout; format: cell-based
Procedure: In Vitro Assay 5: Nippostrongylus Brasiliensis (NIPOBR)
Adult Nippostrongylus brasiliensis were washed with saline buffer containing 100 U/ml penicillin, 0.1 mg/ml streptomycin and 2.5 μg/ml amphotericin B. Test compounds were dissolved in DMSO and worms were incubated in medium in a final concentration of 10 μg/ml (10 ppm), 1 μg/ml (1 ppm) and 0.1 μg/ml (0.1 ppm) respectively. An aliquot of the medium was used to determine the acetylcholine esterase activity in comparison to a negative control. The principle of measuring acetylcholine esterase as readout for anthelmintic activity was described in Rapson et al (1986) and Rapson et al (1987).
Based on the evaluation of a wide concentration range, concentration-response curves as well as EC50-values were calculated.

C. elegans Slo-1a = C. elegans Slo-1a (Caenorhabditis elegans, UniProt Q95V25)
C. elegans Slo-1a, sequence (Q95V25 whole entry): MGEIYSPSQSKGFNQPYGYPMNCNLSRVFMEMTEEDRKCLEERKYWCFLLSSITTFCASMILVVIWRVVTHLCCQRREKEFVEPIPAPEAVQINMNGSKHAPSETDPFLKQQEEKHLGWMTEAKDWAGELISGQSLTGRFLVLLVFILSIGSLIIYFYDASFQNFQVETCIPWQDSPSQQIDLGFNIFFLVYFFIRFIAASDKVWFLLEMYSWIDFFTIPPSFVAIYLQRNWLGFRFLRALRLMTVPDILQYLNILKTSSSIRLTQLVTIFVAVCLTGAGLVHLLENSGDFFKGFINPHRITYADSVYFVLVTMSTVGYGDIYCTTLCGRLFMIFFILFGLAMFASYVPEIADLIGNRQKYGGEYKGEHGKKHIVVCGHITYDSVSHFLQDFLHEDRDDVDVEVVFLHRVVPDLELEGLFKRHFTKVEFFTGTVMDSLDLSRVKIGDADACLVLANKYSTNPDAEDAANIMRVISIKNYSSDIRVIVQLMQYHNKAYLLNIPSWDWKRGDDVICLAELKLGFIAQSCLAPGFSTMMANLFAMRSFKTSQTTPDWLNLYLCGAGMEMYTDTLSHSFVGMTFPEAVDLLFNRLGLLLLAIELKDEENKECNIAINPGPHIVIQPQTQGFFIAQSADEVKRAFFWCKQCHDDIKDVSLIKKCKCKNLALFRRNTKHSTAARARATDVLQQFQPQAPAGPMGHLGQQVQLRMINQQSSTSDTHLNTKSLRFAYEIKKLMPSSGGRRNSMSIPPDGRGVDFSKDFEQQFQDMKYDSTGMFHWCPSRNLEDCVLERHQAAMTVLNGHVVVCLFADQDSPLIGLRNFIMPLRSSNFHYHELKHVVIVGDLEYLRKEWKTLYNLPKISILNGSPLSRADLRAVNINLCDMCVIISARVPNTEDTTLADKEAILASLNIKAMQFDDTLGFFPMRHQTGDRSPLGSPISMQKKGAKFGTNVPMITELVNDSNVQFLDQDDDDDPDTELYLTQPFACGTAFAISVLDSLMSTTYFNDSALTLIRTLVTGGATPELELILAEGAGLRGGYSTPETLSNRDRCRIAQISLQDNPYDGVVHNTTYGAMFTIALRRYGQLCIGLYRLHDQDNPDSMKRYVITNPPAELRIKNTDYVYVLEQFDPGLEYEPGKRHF
Procedure: For transfection with plasmid DNA to express C. elegans Slo-1a (accession number AAL28102) CHO cells were passaged to 40% confluence before adding the transfection solution to the cell culture. The transfection solution included 300 μL OptiMEM (Life Technologies, Nr.: 31985), 2 μL (=6 μg) of plasmid DNA containing the C. elegans Slo-1a gene and 9 μL FugeneHD (Promega, Nr.: E2311), and was added to the cells prior to incubation for 48 hours at 37° C., 5% CO2. The transfection medium was exchanged for the selection medium which contains additional G418 (2 mg/ml, Invitrogen, Nr.: 10131) and the cells were seeded into 384 well plates (300 cells/well). After a few weeks, the remaining surviving cells were tested with a voltage sensitive dye (Membrane Potential Assay Kit, Molecular Devices Nr.: R8034) for K+ channel expression. Positive cell clones were purified by the limited dilution technique. For this the clone with the highest and most robust signal in the voltage sensitive dye assay was further subcloned (incubated) in 384 well plates (0.7 cells/well) to obtain clonal purity. This generated a final stable CHO cell line expressing the C. elegans Slo-1a.
Cell culture conditions Cells were cultured at 37° C. and 5% CO2 in MEMalpha with Gutamax I (Invitrogen, Nr.: 32571), supplemented with 10% (v/v) heat inactivated fetal bovine serum (Invitrogen, Nr.: 10500), G418 (1 mg/ml, Invitrogen, Nr.: 10131). Cells were detached using Accutase (Sigma, Nr.: A6964).
Membrane Potential Measurements
Laboratory compound testing was performed on 384-well microtiter plates (MTPs, Greiner, Nr.: 781092). 8000 cells/well were plated onto 384-well MTPs and cultured for 20 to 24 hours at 37° C. and 5% CO2. After removal of the cell culture medium, the cells were washed once with tyrode (150 mM NaCl, 0.3 mM KCl, 2 mM CaCl2, 1 m M MgCl2, 0.8 mM NaH2PO4, 5 mM Glucose, 28 mM Hepes, pH 7.4) and then loaded with the voltage sensitive dye of the Membrane Potential Assay Kit diluted in tyrode for 1 h at room temperature. After starting the measurement of fluorescence using a FLIPR Tetra (Molecular Devices, Exc. 510-545 nm, Emm. 565-625 nm), test compounds were added followed by the addition of KCl tyrode (final assay concentration: 70 mM KCl, 2 mM CaCl2, 1 mM MgCl2, 0.8 mM NaH2PO4, 5 mM Glucose, 28 mM Hepes, pH 7.4, including the voltage sensitive dye). The measurement was completed after 7 minutes.
EC50 values were calculated using a four-parameter plotting by the Scilligence ELN/Regmol Software Tool, Bioassay.

D. immitis Slo-1 = D. immitis Slo-1 (Dirofilaria immitis, UniProt I0DFK5); experiment: In Vitro Assay 2: D. immitis Slo-1, membrane potential measurement in recombinant CHO cell line; format: cell-based
D. immitis Slo-1, sequence (I0DFK5 1-1119): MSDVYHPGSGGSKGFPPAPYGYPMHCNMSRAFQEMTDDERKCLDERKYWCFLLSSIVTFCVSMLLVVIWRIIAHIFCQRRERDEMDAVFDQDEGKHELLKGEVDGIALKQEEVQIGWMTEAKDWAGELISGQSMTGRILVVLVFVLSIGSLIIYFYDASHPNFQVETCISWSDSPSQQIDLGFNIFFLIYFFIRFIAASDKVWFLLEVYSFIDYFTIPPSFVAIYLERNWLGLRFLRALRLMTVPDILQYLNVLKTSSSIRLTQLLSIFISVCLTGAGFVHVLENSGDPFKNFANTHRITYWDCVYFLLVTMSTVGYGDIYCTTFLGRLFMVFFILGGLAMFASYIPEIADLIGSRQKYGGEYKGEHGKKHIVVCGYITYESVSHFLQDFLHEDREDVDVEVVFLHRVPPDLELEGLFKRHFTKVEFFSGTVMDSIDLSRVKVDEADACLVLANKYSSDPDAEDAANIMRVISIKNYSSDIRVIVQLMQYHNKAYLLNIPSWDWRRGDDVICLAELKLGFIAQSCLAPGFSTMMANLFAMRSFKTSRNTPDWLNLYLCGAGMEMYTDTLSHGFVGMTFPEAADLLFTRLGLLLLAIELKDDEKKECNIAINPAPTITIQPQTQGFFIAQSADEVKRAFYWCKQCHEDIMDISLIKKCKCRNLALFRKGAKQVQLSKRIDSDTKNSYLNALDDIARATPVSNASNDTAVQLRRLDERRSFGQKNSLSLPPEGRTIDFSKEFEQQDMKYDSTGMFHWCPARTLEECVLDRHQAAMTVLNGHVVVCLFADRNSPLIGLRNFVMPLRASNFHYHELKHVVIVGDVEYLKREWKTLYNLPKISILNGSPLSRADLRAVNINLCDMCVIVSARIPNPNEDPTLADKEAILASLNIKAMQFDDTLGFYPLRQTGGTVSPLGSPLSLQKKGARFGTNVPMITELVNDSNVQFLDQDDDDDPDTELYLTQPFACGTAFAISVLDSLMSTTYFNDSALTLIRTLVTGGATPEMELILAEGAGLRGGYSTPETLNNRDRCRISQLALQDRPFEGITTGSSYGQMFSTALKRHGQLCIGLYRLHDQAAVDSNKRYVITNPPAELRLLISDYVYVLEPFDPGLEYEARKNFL

[2] = system: Dirofilaria immitis third-stage larvae; experiment: In Vitro Assay 4: Dirofilaria immitis (DIROIM L4) larval motility; format: cell-based; conditions: 72 h
[3] = system: Dirofilaria immitis microfilariae; experiment: In Vitro Assay 3: Dirofilaria immitis microfilariae (DIROIM L1) motility; format: cell-based; conditions: 72 h
[4] = acetylcholine esterase activity in medium vs negative control, adult worms, read-out: EC50

CC(C)c1c(C(=O)NN2CCOc3ccccc32)sc2c(-c3cc(F)cc(F)c3F)ccnc12 [6,7]
EC50 [1]: < 0.1 µg/mL

CC(C)c1c(C(=O)NN2CCOc3ccccc32)sc2c(-c3cc(F)cc(F)c3F)cccc12 [Example 1.1, N-(2,3-dihydro-1,4-benzoxazin-4-yl)-3-isopropyl-7-(2,3,5-trifluorophenyl)benzo-thiophene-2-carboxamide]
EC50 (C. elegans Slo-1a): < 100 nM | EC50 (D. immitis Slo-1): > 1000 nM | EC50 [1, 4]: 0.1 to 1 µg/mL (≈ 0.207 to 2.07 µM) | EC50 [2]: < 0.1 µg/mL | EC50 [3]: < 0.1 µg/mL

O=C(NN1CCOc2ccccc21)c1sc2c(-c3cc(F)cc(F)c3F)nccc2c1N1CCOCC1 [Example 2.1, N-(2,3-Dihydro-1,4-benzoxazin-4-yl)-3-morpholino-7-(2,3,5-trifluorophenyl)thieno-[2,3-c]pyridine-2-carboxamide]
EC50 (C. elegans Slo-1a): 100 to 1000 nM | EC50 (D. immitis Slo-1): 100 to 1000 nM | EC50 [1, 4]: > 1 µg/mL | EC50 [2]: 0.1 to 1 µg/mL (≈ 0.19 to 1.9 µM) | EC50 [3]: 0.1 to 1 µg/mL (≈ 0.19 to 1.9 µM)

CC(C)c1c(C(=O)NN2CCOc3ccccc32)sc2c(-c3cc(F)cc(F)c3F)nccc12 [Example 2.2, N-(2,3-Dihydro-1,4-benzoxazin-4-yl)-3-isopropyl-7-(2,3,5-trifluorophenyl)-thieno[2,3-c]pyridine-2-carboxamide]
EC50 (C. elegans Slo-1a): < 100 nM | EC50 (D. immitis Slo-1): 100 to 1000 nM | EC50 [1, 4]: 0.1 to 1 µg/mL (≈ 0.207 to 2.07 µM) | EC50 [2]: < 0.1 µg/mL | EC50 [3]: < 0.1 µg/mL

Cc1nn2c(C(C)C)c(C(=O)NN3CCOc4ccccc43)cnc2c1-c1c(F)cccc1F [Example 3.1, 3-(2,6-Difluorophenyl)-N-(2,3-dihydro-1,4-benzoxazin-4-yl)-7-isopropyl-2-methyl-pyrazolo[1,5-a]pyrimidine-6-carboxamide]
EC50 (C. elegans Slo-1a): < 100 nM | EC50 (D. immitis Slo-1): 100 to 1000 nM | EC50 [1, 4]: > 1 µg/mL | EC50 [2]: < 0.1 µg/mL | EC50 [3]: < 0.1 µg/mL

Cc1nn2c(C(C)C)c(C(=O)NN3CCOc4ccccc43)sc2c1-c1cc(F)cc(F)c1F [Example 4.1, N-(2,3-Dihydro-1,4-benzoxazin-4-yl)-3-isopropyl-6-methyl-7-(2,3,5-trifluorophenyl)-pyrazolo[5,1-b]thiazole-2-carboxamide]
EC50 (C. elegans Slo-1a): < 100 nM | EC50 (D. immitis Slo-1): > 1000 nM | EC50 [1, 4]: > 1 µg/mL | EC50 [2]: < 0.1 µg/mL | EC50 [3]: 0.1 to 1 µg/mL (≈ 0.206 to 2.06 µM)

Cc1nn2c(N3CCOCC3)c(C(=O)NN3CCOc4ccccc43)sc2c1-c1cc(F)cc(F)c1F [Example 4.2, N-(2,3-Dihydro-4H-benzo[b][1,4]oxazin-4-yl)-6-methyl-3-morpholino-7-(2,3,5-trifluorophenyl)pyrazolo[5,1-b]thiazole-2-carboxamide]
EC50 (C. elegans Slo-1a): < 100 nM | EC50 (D. immitis Slo-1): > 1000 nM | EC50 [1, 4]: 0.1 to 1 µg/mL (≈ 0.189 to 1.89 µM) | EC50 [2]: < 0.1 µg/mL | EC50 [3]: < 0.1 µg/mL

Cc1nn2c(C(C)(C)O)c(C(=O)NN3CCOc4ccccc43)sc2c1-c1cc(F)cc(F)c1F [Example 4.3, N-(2,3-Dihydro-1,4-benzoxazin-4-yl)-3-(2-hydroxypropan-2-yl)-6-methyl-7-(2,3,5-trifluorophenyl)pyrazolo [3,2-b][1,3]thiazole-2-carboxamide]
EC50 (C. elegans Slo-1a): < 100 nM | EC50 (D. immitis Slo-1): 100 to 1000 nM | EC50 [1, 4]: 0.1 to 1 µg/mL (≈ 0.199 to 1.99 µM) | EC50 [2]: < 0.1 µg/mL | EC50 [3]: < 0.1 µg/mL

Cc1nn2c(C(C)C)c(C(=O)NN3CCOc4ccccc43)nnc2c1-c1c(F)cccc1F [Example 5.1, 8-(2,6-Difluorophenyl)-N-(2,3-dihydro-1,4-benzoxazin-4-yl)-4-isopropyl-7-methyl-pyrazolo[5,1-c][1,2,4]triazine-3-carboxamide]
EC50 (C. elegans Slo-1a): 100 to 1000 nM | EC50 (D. immitis Slo-1): > 1000 nM | EC50 [1, 4]: > 1 µg/mL | EC50 [2]: 0.1 to 1 µg/mL (≈ 0.215 to 2.15 µM) | EC50 [3]: < 0.1 µg/mL

CC(C)(O)c1c(C(=O)NN2CCOc3ccccc32)sc2c(-c3cc(F)cc(F)c3F)c(F)cnc12 [Example 6.1, N-(2,3-Dihydro-4H-benzo[b][1,4]oxazin-4-yl)-6-fluoro-3-(2-hydroxypropan-2-yl)-7-(2,3,5-trifluorophenyl)thieno[3,2-b]pyridine-2-carboxamide]
EC50 (C. elegans Slo-1a): < 100 nM | EC50 (D. immitis Slo-1): < 100 nM | EC50 [1]: < 0.1 µg/mL | EC50 [2]: < 0.1 µg/mL | EC50 [3]: < 0.1 µg/mL

O=C(NN1CCOc2ccccc21)c1sc2c(-c3cc(F)cc(F)c3F)c(F)cnc2c1N1CC(F)C1 [Example 6.2, N-(2,3-dihydro-4H-benzo[b][1,4]oxazin-4-VI)-6-fluoro-3-(3-fluoroazetidin-1-yl)-7-(2,3,5-trifluorophenyl)thieno[3,2-b]pyridine-2-carboxamide]
EC50 (C. elegans Slo-1a): 100 to 1000 nM | EC50 (D. immitis Slo-1): > 1000 nM | EC50 [1, 4]: > 1 µg/mL | EC50 [2]: 0.1 to 1 µg/mL (≈ 0.188 to 1.88 µM) | EC50 [3]: < 0.1 µg/mL

CC(C)c1c(C(=O)NN2CCOc3ccccc32)sc2c(-c3cc(F)cc(F)c3F)c(F)cnc12 [Example 6.3, N-(2,3-Dihydro-4H-benzo[b][1,4]oxazin-4-yl)-6-fluoro-3-isopropyl-7-(2,3,5-trifluoro-phenyl)thieno[3,2-b]pyridine-2-carboxamide]
EC50 (C. elegans Slo-1a): < 100 nM | EC50 (D. immitis Slo-1): < 100 nM | EC50 [1]: < 0.1 µg/mL | EC50 [2]: < 0.1 µg/mL | EC50 [3]: < 0.1 µg/mL

O=C(NN1CCOc2ccccc21)c1sc2c(-c3cc(F)cc(F)c3F)c(F)cnc2c1N1CCOCC1 [Example 6.4, N-(2,3-Dihydro-4H-benzo[b][1,4]oxazin-4-yl)-6-fluoro-3-morpholino-7-(2,3,5-trifluorophenyl)thieno[3,2-b]pyridine-2-carboxamide]
EC50 (C. elegans Slo-1a): < 100 nM | EC50 (D. immitis Slo-1): 100 to 1000 nM | EC50 [1, 4]: 0.1 to 1 µg/mL (≈ 0.184 to 1.84 µM) | EC50 [2]: < 0.1 µg/mL | EC50 [3]: < 0.1 µg/mL

CC(C)(O)c1c(C(=O)NN2CCOc3ccccc32)sc2c(-c3cc(F)cc(F)c3F)ccnc12 [Example 6.5, N-(2,3-Dihydro-4H-benzo[b][1,4]oxazin-4-yl)-3-(2-hydroxypropan-2-yl)-7-(2,3,5-trifluorophenyl)thieno[3,2-b]pyridine-2-carboxamide]
EC50 (C. elegans Slo-1a): < 100 nM | EC50 (D. immitis Slo-1): < 100 nM | EC50 [1, 4]: 0.1 to 1 µg/mL (≈ 0.2 to 2 µM) | EC50 [2]: < 0.1 µg/mL | EC50 [3]: < 0.1 µg/mL

O=C(NN1CCOc2ccccc21)c1sc2c(-c3cc(F)cc(F)c3F)ccnc2c1N1CC(F)C1 [Example 6.6, N-(2,3-dihydro-4H-benzo[b][1,4]oxazin-4-yl)-3-(3-fluoroazetidin-1-yl)-7-(2,3,5-trifluorophenyl)thieno[3,2-b]pyridine-2-carboxamide]
EC50 (C. elegans Slo-1a): 100 to 1000 nM | EC50 (D. immitis Slo-1): > 1000 nM | EC50 [1, 4]: > 1 µg/mL | EC50 [2]: 0.1 to 1 µg/mL (≈ 0.194 to 1.94 µM) | EC50 [3]: < 0.1 µg/mL

CC(C)c1c(C(=O)NN2CCOc3ccccc32)sc2c(-c3cc(F)cc(F)c3F)ccnc12 [Example 6.7, N-(2,3-Dihydro-4H-benzo[b][1,4]oxazin-4-yl)-3-isopropyl-7-(2,3,5-trifluorophenyl)-thieno [3,2-b]pyridine-2-carboxamide]
EC50 (C. elegans Slo-1a): < 100 nM | EC50 (D. immitis Slo-1): < 100 nM | EC50 [2]: < 0.1 µg/mL | EC50 [3]: < 0.1 µg/mL

O=C(NN1CCOc2ccccc21)c1sc2c(-c3cc(F)cc(F)c3F)ccnc2c1N1CCOCC1 [Example 6.8, N-(2,3-Dihydro-4H-benzo[b][1,4]oxazin-4-yl)-3-morpholino-7-(2,3,5-trifluoro-phenyl)thieno[3,2-b]pyridine-2-carboxamide]
EC50 (C. elegans Slo-1a): < 100 nM | EC50 (D. immitis Slo-1): 100 to 1000 nM | EC50 [1, 4]: > 1 µg/mL | EC50 [2]: < 0.1 µg/mL | EC50 [3]: < 0.1 µg/mL

CC(C)c1c(C(=O)NN2CCOc3ccccc32)nc2c(-c3cc(F)cc(F)c3F)cccn12 [Example 7.1, N-(2,3-dihydro-4H-benzo[b][1,4]oxazin-4-yl)-3-isopropyl-8-(2,3,5-trifluoro-phenyl)imidazo[1,2-a]pyridine-2-carboxamide]
EC50 (C. elegans Slo-1a): > 1000 nM | EC50 (D. immitis Slo-1): > 1000 nM | EC50 [1, 4]: > 1 µg/mL | EC50 [2]: 0.1 to 1 µg/mL (≈ 0.214 to 2.14 µM) | EC50 [3]: 0.1 to 1 µg/mL (≈ 0.214 to 2.14 µM)

CC(C)c1c(C(=O)NN2CCOc3ccccc32)nc2c(-c3cc(F)cc(F)c3F)nccn12 [Example 8.1, N-(2,3-Dihydro-4H-benzo[b][1,4]oxazin-4-yl)-3-isopropyl-8-(2,3,5-trifluorophenyl)-imidazo[1,2-a]pyrazine-2-carboxamide]
EC50 (C. elegans Slo-1a): > 1000 nM | EC50 (D. immitis Slo-1): > 1000 nM | EC50 [1, 4]: > 1 µg/mL | EC50 [2]: 0.1 to 1 µg/mL (≈ 0.214 to 2.14 µM) | EC50 [3]: 0.1 to 1 µg/mL (≈ 0.214 to 2.14 µM)

Cc1cnc2c(C(C)C)c(C(=O)NN3CCOc4ccccc43)nn2c1-c1cc(F)cc(F)c1F [Example 9.1, N-(2,3-Dihydro-4H-benzo[b][1,4]oxazin-4-yl)-3-isopropyl-6-methyl-7-(2,3,5-trifluorophenyl)-pyrazolo[1,5-a]pyrimidine-2-carboxamide]
EC50 (C. elegans Slo-1a): > 1000 nM | EC50 (D. immitis Slo-1): > 1000 nM | EC50 [1, 4]: > 1 µg/mL | EC50 [2]: 0.1 to 1 µg/mL (≈ 0.208 to 2.08 µM) | EC50 [3]: < 0.1 µg/mL

CC(C)c1c(C(=O)NN2CCOc3ccccc32)n(C)c2c(-c3cc(F)cc(F)c3F)cccc12 [Example 17.2, N-(2,3-Dihydro-4H-benzo[b][1,4]oxazin-4-yl)-3-isopropyl-1-methyl-7-(2,3,5-trifluoro-phenyl)-1H-indole-2-carboxamide]
EC50 (C. elegans Slo-1a): > 1000 nM | EC50 (D. immitis Slo-1): > 1000 nM | EC50 [1, 4]: > 1 µg/mL | EC50 [2]: > 1 µg/mL

CN(C)c1c(C(=O)NN2CCOc3ccccc32)cnc2c1ccn2-c1cc(F)cc(F)c1F [Example 18.1, N-(2,3-Dihydro-4H-benzo[b][1,4]oxazin-4-yl)-4-(dimethylamino)-1-(2,3,5-trifluorophenyl)-1H-pyrrolo[2,3-b]pyridine-5-carboxamide]
EC50 (C. elegans Slo-1a): 100 to 1000 nM | EC50 (D. immitis Slo-1): > 1000 nM | EC50 [1, 4]: > 1 µg/mL | EC50 [2]: < 0.1 µg/mL

CC(C)c1c(C(=O)NN2CCOc3ccccc32)oc2c(-c3cc(F)cc(F)c3F)cccc12 [Example 19.1, N-(2,3-Dihydro-1,4-benzoxazin-4-yl)-3-(1-methylethyl)-7-[2,3,5-tris(fluoranyl)-phenyl]benzofuran-2-carboxamide]
EC50 [1, 4]: 0.1 to 1 µg/mL (≈ 0.214 to 2.14 µM) | EC50 [2]: < 0.1 µg/mL
